Common to all, as to type: cell-based
One experiment relates to fungi. The experiment in a line: Antifungal activity in vitro (general statement). To be noted: qualitative statement. The protocol:
(§1) Minimum Inhibitory Concentrations The antifungal activity of the compound of formula 1 was determined using broth dilution assays. The compound was dissolved in DMSO at 3.7 mg/mL and serially diluted in 1% aqueous DMSO. The yeast strains including Candida species and Cryptococcal species were grown to exponential phase in a complex medium composed of 1% peptone, 0.5% yeast extract and 0.05% dextrose (CM) at 29° C. The yeast cells were diluted in CM to A600 =0.004 U/mL which was previously determined to be equal to 3000 colony forming units per milliliter. 180 uL of inoculated CM was added to the wells of a 96 well microtiter dish containing 20 μL of diluted inhibitor samples. The final concentration of the compound in the wells ranged from 37-0.01 μg/ml. The microtiter dishes were incubated for 18 hours at 29° C. and visually inspected for growth. The minimum inhibitory concentration (MIC) was recorded as the lowest concentration of compound to prevent visible growth.
(§2) The same procedure was used to determine the MIC of the compound against the filamentous fungi, Aspergillus fumigatus MF 5668, except a spore inoculum was prepared. Spores of A. fumigatus were obtained by washing a well sporulated slant of the organism growing on potato dextrose agar with 0.05% tween 80 solution. […]

The test system of the next experiment is Candida tropicalis. Put plainly: Broth dilution MIC, antifungal activity. The following applies: strain MY 2167, 18 hours, 29° C. As for the experimental part:
as §1
A general note: Broth dilution looks for growth in wells or tubes with falling amounts of substance.

Another experiment relates to Candida parapsilosis. The experiment in a line: Broth dilution MIC, antifungal activity. To be noted: Lodderomyces parapsilosis; strain MY 1010; 18 hours, 29° C. As for the experimental part:
as §1

Another experiment concerns Candida krusei. The experiment in a line: Broth dilution MIC, antifungal activity. To be noted: Pichia kudriavzevii; strain MY 2168; 18 hours, 29° C. The protocol: as §1
For the next experiment, the system named is Candida albicans. Put plainly: Broth dilution MIC, antifungal activity. To be noted: strain MY 1055, 18 hours, 29° C. As for the experimental part:
as §1

The subject of the next experiment is Cryptococcus neoformans. Put plainly: Broth dilution MIC, antifungal activity. The following applies: 18 h. The protocol: as §1
In a further experiment the test system is bacterial strains. The experiment in a line: Antibacterial activity in vitro (general statement). To be noted: qualitative statement. As for the experimental part: (§3) The antibacterial activity of the compound was determined using broth dilution assays. The compound was dissolved in DMSO at 10 mg/mL and serially diluted in Luria Broth (LB), composed of […]. The Enterococcal strains were grown in Brain Heart Infusion broth; Staphylococcus aureus (MB2865) was grown in LB; S. aureus (MB108) and (MB2949) and Proteus vulgaris were grown in Nutrient Broth with 2% yeast extract. All bacterial strains were incubated overnight at 37° C. The bacterial cells were diluted 10^-4 in LB to give approximately 5×10^4 to 1×10^5 colony forming units per milliliter. 180 μL of inoculated LB was added to the wells of a 96 well microtiter dish containing 20 μL of diluted inhibitor samples. The final concentration of the compound in the wells ranged from 500-0.00025 μg/ml. The microtiter dishes were incubated for 24 hours at 28° C. and visually inspected for growth. The minimum inhibitory concentration (MIC) was recorded as the lowest concentration of compound to prevent visible growth.

The test system of the next experiment is Entercoccus faecium. Put plainly: Broth dilution MIC, antibacterial activity. The following applies: 24 h. As for the experimental part: as §3
For a further experiment, the system named is Proteus vulgaris. The experiment in a line: Broth dilution MIC, antibacterial activity. To be noted: strain MB 838, 24 hours, 28° C. As for the experimental part:
as §3

The subject of a further experiment is Staphylococcus aureus. Put plainly: Broth dilution MIC, antibacterial activity. The following applies: 24 h. As for the experimental part:
as §3

The subject of another experiment is Aspergillus fumigatus. Put plainly: Broth dilution MIC, antifungal activity (spore inoculum). To be noted: 18 h, strain MF 5668. The protocol: as §1, §2

Values after ≈ are worked out from the molar mass of the structure shown.

By MIC is commonly meant the smallest concentration in the dilution series that meets the test's criterion for growth inhibition. The low end stands for inhibition by little substance, the high end for a need for much substance. As to `CCCCCCCCCC1OC1/C=C/C(=O)C1(O)C(=O)NC(CO)C1O` (stereo not drawn) [Compound 1], in the experiment with fungi, the antifungal activity entry was “antifungal and antibacterial activity”. The MIC with Candida tropicalis is 7.4 µg/mL (≈ 20 µM); against Candida parapsilosis, 1.5 µg/mL (≈ 4.06 µM); against Candida krusei, more than 37 µg/mL; against Candida albicans, 7.4 µg/mL (≈ 20 µM); against Cryptococcus neoformans (strain MY 2061, 29° C.), 7.4 µg/mL (≈ 20 µM); against Cryptococcus neoformans (strain MY 2062, 29° C.), 0.02 µg/mL (≈ 0.0541 µM). In addition, the minimum inhibitory concentration (MIC) with Entercoccus faecium (strain MB 5571, 28° C.) was 2 µg/mL (≈ 5.41 µM); in the experiment on Entercoccus faecium (strain MB 5572, 28° C.), 1 µg/mL (≈ 2.71 µM); in the experiment on Proteus vulgaris it was more than 500 µg/mL; in the experiment with Staphylococcus aureus (strain MB 108, 28° C.) it was 0.5 µg/mL (≈ 1.35 µM); with Staphylococcus aureus (strain MB 2865, 28° C.), 0.5 µg/mL (≈ 1.35 µM); against Staphylococcus aureus (strain MB 2949, 28° C.), 125 to 250 µg/mL (≈ 338 to 677 µM). Moreover, in the experiment with Aspergillus fumigatus, the minimal inhibitory concentration (MIC) came to 37 µg/mL (≈ 100 µM). For the same compound, the antibacterial activity entry with bacterial strains was “antifungal and antibacterial activity”.

Values taken from patent publication US5348970A, “Antifungal compound and compositions containing the compound” (Merck & Co., Inc., priority 1993, dated 1994).
